Consider 15 compounds from US10793547B2, “Modulator of the cystic fibrosis transmembrane conductance regulator, pharmaceutical compositions, methods of treatment, and process for making the modulator” (Vertex Pharmaceuticals Incorporated, priority 2016, dated 2020).

pEC50: −log10 of the molar value.

In one data set the target is T1, F508del-CFTR (Homo sapiens, UniProt P13569, DEL508-508).
T1 construct: expressed in transfected cells
The data set is described as follows: Membrane potential optical (FLIPR) assay for F508del-CFTR modulators in NIH 3T3 cells. The format is cell-based. To be noted: NIH 3T3 cells expressing F508del; assay A1; read-out: CFTRdF508 Cor 3T3 FLIPR 384 CFTRdF508 MP 3T3 770 EC50. The text has this: Membrane Potential Optical Methods for Assaying Properties of F508del-CFTR Modulators
The assay utilizes fluorescent voltage sensing dyes to measure changes in membrane potential using a fluorescent plate reader (e.g., FLIPR III, Molecular Devices, Inc.) as a readout for increase in functional F508del in NIH 3T3 cells. The driving force for the response is the creation of a chloride ion gradient in conjunction with channel activation and concurrent with compound treatment by a single liquid addition step after the cells have previously been loaded with a voltage sensing dye.
A1. Identification of F508del-CFTR Modulators
To identify modulators of F508del, a fluorescence based HTS assay format was developed. This HTS assay utilizes fluorescent voltage sensing dyes to measure changes in membrane potential on the FLIPR III as a measurement for increase in gating (conductance) of F508del NIH 3T3 cells. The driving force for the response is the creation of a chloride ion gradient in conjunction with channel activation and concurrent with compound treatment by a single liquid addition step after the cells have previously been loaded with a voltage sensing dye.
Bath Solution #1: (in mM) NaCl 160, KCl 4.5, CaCl2 2, MgCl2 1, HEPES 10, pH 7.4 with NaOH, Glucose 10.
Chloride-free bath solution: Chloride salts in Bath Solution #1 (above) are substituted with gluconate salts.
NIH3T3 mouse fibroblasts stably expressing F508del were used for optical measurements of membrane potential. The cells were maintained at 37° C. in 5% CO2 and 90% humidity in Dulbecco's modified Eagle's medium supplemented with 2 mM glutamine, 10% fetal bovine serum, 1×NEAA, β-ME, 1× pen/strep, and 25 mM HEPES in 175 cm^2 culture flasks. For all optical assays, the cells were seeded at 12,000 cells/well in 384-well matrigel-coated plates and cultured for 18-24 hrs at 37° C. for the potentiator assay. For the correction assay, the cells were cultured at 37° C. with and without compounds for 18-24 hours.

In the next data set the target is T2, human PXR (Homo sapiens, UniProt O75469).
T2 construct: host or cells: DPX-2 cell line (derived from HepG2)
T2 sequence (O75469 1-434): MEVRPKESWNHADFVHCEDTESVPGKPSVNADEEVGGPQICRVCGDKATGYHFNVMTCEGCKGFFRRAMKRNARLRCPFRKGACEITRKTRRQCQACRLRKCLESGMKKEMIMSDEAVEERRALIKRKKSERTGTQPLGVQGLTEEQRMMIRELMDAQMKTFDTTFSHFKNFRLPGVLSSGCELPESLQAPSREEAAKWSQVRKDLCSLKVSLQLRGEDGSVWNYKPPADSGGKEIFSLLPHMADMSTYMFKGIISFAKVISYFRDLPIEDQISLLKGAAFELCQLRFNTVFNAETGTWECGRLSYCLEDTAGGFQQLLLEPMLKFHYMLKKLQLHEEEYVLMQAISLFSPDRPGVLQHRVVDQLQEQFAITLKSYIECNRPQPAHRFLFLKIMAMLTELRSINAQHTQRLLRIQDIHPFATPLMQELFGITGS
As to the kind of experiment: PXR assay: PXR mediated CYP3A4 induction in DPX-2 cell line. The format is cell-based. The following applies: DPX-2 cells. The procedure:
D. Experimental Protocol for PXR Assay
The propensity for PXR mediated CYP3A4 induction is assessed using the DPX-2 cell line in vitro. This cell line, which has been licensed from Puracyp Inc. was derived from HepG2 cells and has been stably transfected with genes encoding human PXR as well as a modified luciferase reporter linked to the CYP3A4 promoter region and related distal and proximal enhancers.
The assay is run in 384 well format and each test article is administered in 11 doses ranging from 0.1 to 60 μM. On day 1, DPX-2 cells which have previously been expanded in-house and cryopreserved are thawed and seeded in tissue culture plates. The following day, media is changed and cells are cultured in media containing test article, vehicle control or the positive control compound, the clinically validated CYP3A4 inducer rifampicin. Cells are cultured in the presence of test article for 48 hours and then cell viability is assessed using fluorescence based assay (Cell Titer-Fluor, Promega) with an EnVision Plate Reader (PerkinElmer). Subsequently, CYP3A4 transactivation, which is proportional to luciferase activity, is measured by reading luminescense using the Promega One-Glo reagent system using the same plate reader.
Data processing within the Genedata software package allows reporting of max fold induction compared to vehicle control, an EC50 value for CYP3A4 inducers and an 11 point-dose response curve.

T1 sequence (P13569 with tags, fused parts or gaps DEL508-508): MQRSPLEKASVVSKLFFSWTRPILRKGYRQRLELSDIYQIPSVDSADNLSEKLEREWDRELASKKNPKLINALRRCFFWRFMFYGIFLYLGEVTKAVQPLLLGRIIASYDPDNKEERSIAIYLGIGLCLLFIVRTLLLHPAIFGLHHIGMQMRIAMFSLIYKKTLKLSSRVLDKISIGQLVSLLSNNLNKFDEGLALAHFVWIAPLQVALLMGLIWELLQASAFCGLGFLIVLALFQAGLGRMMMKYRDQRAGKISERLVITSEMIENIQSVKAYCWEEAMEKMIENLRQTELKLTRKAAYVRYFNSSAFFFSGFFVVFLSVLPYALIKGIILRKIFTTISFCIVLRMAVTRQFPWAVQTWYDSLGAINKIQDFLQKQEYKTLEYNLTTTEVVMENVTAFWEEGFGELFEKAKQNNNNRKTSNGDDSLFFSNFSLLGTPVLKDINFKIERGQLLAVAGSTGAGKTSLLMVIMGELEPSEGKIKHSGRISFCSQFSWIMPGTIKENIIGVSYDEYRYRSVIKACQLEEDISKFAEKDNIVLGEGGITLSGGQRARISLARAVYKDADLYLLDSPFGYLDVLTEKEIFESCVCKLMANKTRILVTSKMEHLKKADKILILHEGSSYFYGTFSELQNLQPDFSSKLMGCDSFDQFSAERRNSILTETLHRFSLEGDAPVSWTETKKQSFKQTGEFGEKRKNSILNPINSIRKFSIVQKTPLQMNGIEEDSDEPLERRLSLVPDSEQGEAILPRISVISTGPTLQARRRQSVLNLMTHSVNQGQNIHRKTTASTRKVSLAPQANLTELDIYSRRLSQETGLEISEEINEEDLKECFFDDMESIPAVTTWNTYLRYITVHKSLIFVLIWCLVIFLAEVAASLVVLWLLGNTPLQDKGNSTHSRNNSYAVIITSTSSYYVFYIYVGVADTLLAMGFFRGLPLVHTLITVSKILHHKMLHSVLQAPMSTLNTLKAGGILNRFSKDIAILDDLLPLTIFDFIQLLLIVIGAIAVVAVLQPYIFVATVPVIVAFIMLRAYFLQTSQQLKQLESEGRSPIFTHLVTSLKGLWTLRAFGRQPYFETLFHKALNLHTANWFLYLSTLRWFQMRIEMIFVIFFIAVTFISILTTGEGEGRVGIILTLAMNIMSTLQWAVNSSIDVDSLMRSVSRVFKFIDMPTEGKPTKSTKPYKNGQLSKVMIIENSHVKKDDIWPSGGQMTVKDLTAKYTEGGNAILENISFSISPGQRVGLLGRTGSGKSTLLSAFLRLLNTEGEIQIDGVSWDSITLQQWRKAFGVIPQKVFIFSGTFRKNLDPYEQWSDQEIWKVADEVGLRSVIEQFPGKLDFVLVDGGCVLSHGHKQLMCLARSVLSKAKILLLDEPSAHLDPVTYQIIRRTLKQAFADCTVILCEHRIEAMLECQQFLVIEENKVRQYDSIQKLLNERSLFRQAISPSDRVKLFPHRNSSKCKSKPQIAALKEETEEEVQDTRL

Take `C[C@@H]1CN(c2nc(-n3ccc(OC4CC4)n3)ccc2C(=O)NS(=O)(=O)c2cnn(C)c2)C(C)(C)C1` [Compound 22, 6-[3-(Cyclopropoxy)pyrazol-1-yl]-N-(1-methylpyrazol-4-yl)sulfonyl-2-[(4S)-2,2,4-trimethylpyrrolidin-1-yl]pyridine-3-carboxamide]: the pEC50 on F508del-CFTR is 5.68.
In the case of `Cc1nn(C)cc1S(=O)(=O)NC(=O)c1ccc(-n2ccc(OCC3(C(F)(F)F)CC3)n2)nc1N1CC(C)CC12CCC2` (centres unmarked) [Compound 43, N-(1,3-dimethylpyrazol-4-yl)sulfonyl-2-(7-methyl-5-azaspiro[3.4]octan-5-yl)-6-[3-[[1-(trifluoromethyl)cyclopropyl]methoxy]pyrazol-1-yl]pyridine-3-carboxamide], the “CYP3A4 Induction-PXR human PXR internal Max % Activity” value on human PXR is reported as 4%. Also, on F508del-CFTR, the pEC50 was 6.66.
Turning to `Cc1c(S(=O)(=O)NC(=O)c2ccc(-n3ccc(OCC4(C)CC4(F)F)n3)nc2N2C[C@@H](C)CC2(C)C)cnn1C` (stereo partly drawn) [Compound 24, 6-[3-[(2,2-Difluoro-1-methyl-cyclopropyl)methoxy]pyrazol-1-yl]-N-(1,5-dimethylpyrazol-4-yl)sulfonyl-2-[(4S)-2,2,4-trimethylpyrrolidin-1-yl]pyridine-3-carboxamide], the “CYP3A4 Induction-PXR human PXR internal Max % Activity” value at human PXR was found to be 6%. Also, the pEC50 at F508del-CFTR is 6.15.
In the case of `[2H]C([2H])([2H])[C@@H]1CN(c2nc(-n3ccc(OCC(C)(C)C(F)(F)F)n3)ccc2C(=O)NS(=O)(=O)c2cn(C)nc2C)C(C)(C)C1([2H])[2H]` [Compound 29, (S)—N-((1,3-dimethyl-1H-pyrazol-4-yl)sulfonyl)-2-(2,2-dimethyl-4-(methyl-d3)pyrrolidin-1-yl-3,3-d2)-6-(3-(3,3,3-trifluoro-2,2-dimethylpropoxy)-1H-pyrazol-1-yl)nicotinamide], the pEC50 on F508del-CFTR is 6.96.
With `C[C@@H]1CN(c2nc(-n3ccc(OCCC4(C(F)(F)F)CC4)n3)ccc2C(=O)NS(=O)(=O)c2cn(C)nc2C(F)(F)F)C(C)(C)C1` [Compound 55, N-[1-methyl-3-(trifluoromethyl)pyrazol-4-yl]sulfonyl-6-[3-[2-[1-(trifluoromethyl)cyclopropyl]ethoxy]pyrazol-1-yl]-2-[(4S)-2,2,4-trimethylpyrrolidin-1-yl]pyridine-3-carboxamide], at human PXR, the “CYP3A4 Induction-PXR human PXR internal Max % Activity” value came out at 9%. For the same compound, the pEC50 on F508del-CFTR was 7.00.
As to `Cc1nn(C)cc1S(=O)(=O)NC(=O)c1ccc(-n2ccc(OCC3(C(F)(F)F)CC3)n2)nc1N1C[C@@H](C(C)C)CC1(C)C` (single isomer, unassigned) [Compound 46, N-(1,3-dimethylpyrazol-4-yl)sulfonyl-2-(4-isopropyl-2,2-dimethyl-pyrrolidin-1-yl)-6-[3-[[1-(trifluoromethyl)cyclopropyl]methoxy]pyrazol-1-yl]pyridine-3-carboxamide], the pEC50 at F508del-CFTR is 6.41.
For `Cc1nn(C)cc1S(=O)(=O)NC(=O)c1ccc(-n2ccc(OCC3(C(F)(F)F)CC3)n2)nc1N1C[C@@H](C(C)C)CC1(C)C` (single isomer, unassigned) [Compound 47, N-(1,3-dimethylpyrazol-4-yl)sulfonyl-2-(4-isopropyl-2,2-dimethyl-pyrrolidin-1-yl)-6-[3-[[1-(trifluoromethyl)cyclopropyl]methoxy]pyrazol-1-yl]pyridine-3-carboxamide], the pEC50 on F508del-CFTR is 7.22.
For `Cc1nn(C)cc1S(=O)(=O)NC(=O)c1ccc(-n2ccc(OCC3(C(F)(F)F)CC3)n2)nc1N1CC(C(C)(C)C)CC1(C)C` (racemic) [Compound 40, 2-(4-tert-Butyl-2,2-dimethyl-pyrrolidin-1-yl)-N-(1,3-dimethylpyrazol-4-yl)sulfonyl-6-[3-[[1-(trifluoromethyl)cyclopropyl]methoxy]pyrazol-1-yl]pyridine-3-carboxamide], the “CYP3A4 Induction-PXR human PXR internal Max % Activity” value at human PXR turned out to be 13%. Moreover, on F508del-CFTR, the pEC50 was 7.10.
For the compound `CCC1CN(c2nc(-n3ccc(OCC4(C(F)(F)F)CC4)n3)ccc2C(=O)NS(=O)(=O)c2cn(C)nc2C)C(C)(C)C1` (centres unmarked) [Compound 49, N-(1,3-dimethylpyrazol-4-yl)sulfonyl-2-(4-ethyl-2,2-dimethyl-pyrrolidin-1-yl)-6-[3-[[1-(trifluoromethyl)cyclopropyl]methoxy]pyrazol-1-yl]pyridine-3-carboxamide], the pEC50 on F508del-CFTR is 6.72.
As to `Cc1nn(C)cc1S(=O)(=O)NC(=O)c1ccc(-n2ccc(OCC3(C(F)(F)F)CC3)n2)nc1N1CC(C)CC1(C)C` (centres unmarked) [Compound 42, N-(1,3-dimethylpyrazol-4-yl)sulfonyl-6-[3-[[1-(trifluoromethyl)cyclopropyl]methoxy]pyrazol-1-yl]-2-(2,2,4-trimethylpyrrolidin-1-yl)pyridine-3-carboxamide], the “CYP3A4 Induction-PXR human PXR internal Max % Activity” value at human PXR is listed as 16%. In addition, the negative logarithm of the EC50 (pEC50) at F508del-CFTR is 6.21.
The matching figures for `Cc1nn(C)cc1S(=O)(=O)NC(=O)c1ccc(-n2ccc(OCC3(C(F)(F)F)CC3)n2)nc1N1CC(C(C)C)CC1(C)C` (racemic) [Compound 41, N-(1,3-dimethylpyrazol-4-yl)sulfonyl-2-(4-isopropyl-2,2-dimethyl-pyrrolidin-1-yl)-6-[3-[[1-(trifluoromethyl)cyclopropyl]methoxy]pyrazol-1-yl]pyridine-3-carboxamide]: 4% and 6.92.
Take `Cc1nn(C)cc1S(=O)(=O)NC(=O)c1ccc(-n2ccc(OCCC3C4(CC4)C34CC4)n2)nc1N1C[C@@H](C)CC1(C)C` [Compound 56, N-(1,3-Dimethylpyrazol-4-yl)sulfonyl-6-[3-(2-dispiro[2.0.2.1]heptan-7-ylethoxy)pyrazol-1-yl]-2-[(4S)-2,2,4-trimethylpyrrolidin-1-yl]pyridine-3-carboxamide]: the “CYP3A4 Induction-PXR human PXR internal Max % Activity” value at human PXR is listed as 11%.
Regarding `Cc1nn(C)cc1S(=O)(=O)NC(=O)c1ccc(-n2ccc(OCC3(C(F)(F)F)CC3)n2)nc1N1CC(C)CC12CC2` (centres unmarked) [Compound 44, N-(1,3-dimethylpyrazol-4-yl)sulfonyl-2-(6-methyl-4-azaspiro[2.4]heptan-4-yl)-6-[3-[[1-(trifluoromethyl)cyclopropyl]methoxy]pyrazol-1-yl]pyridine-3-carboxamide], on F508del-CFTR, the pEC50 is 6.41.
For the compound `Cc1c(S(=O)(=O)NC(=O)c2ccc(-n3ccc(OCC(C4CC4)C4CC4)n3)nc2N2C[C@@H](C)CC2(C)C)cnn1C` [Compound 33, 6-[3-(2,2-dicyclopropylethoxy)pyrazol-1-yl]-N-(1,5-dimethylpyrazol-4-yl)sulfonyl-2-[(4S)-2,2,4-trimethylpyrrolidin-1-yl]pyridine-3-carboxamide], at human PXR, the “CYP3A4 Induction-PXR human PXR internal Max % Activity” value is recorded as 5%. For the same compound, the pEC50 at F508del-CFTR was 6.43.
For `Cc1nn(C)cc1S(=O)(=O)NC(=O)c1ccc(-n2ccc(OCC3(C(F)(F)F)CC3)n2)nc1N1CC(C(C)(C)C)CC1(C)C` (single isomer, unassigned) [Compound 53, 2-(4-tert-butyl-2,2-dimethyl-pyrrolidin-1-yl)-N-(1,3-dimethylpyrazol-4-yl)sulfonyl-6-[3-[[1-(trifluoromethyl)cyclopropyl]methoxy]pyrazol-1-yl]pyridine-3-carboxamide], on human PXR, the “CYP3A4 Induction-PXR human PXR internal Max % Activity” value was found to be 7%. In addition, the pEC50 on F508del-CFTR was 6.41.
